Measurements from ChEMBL document CHEMBL3882388, “Pharmaceutical Compositions Comprising Beta-Lactam Antibiotic, Sulbactam and Beta-Lactamase Inhibitor” (2014).

How the values were obtained:
[1] = target: Beta-lactamase (Acinetobacter baumannii) (UniProt Q8RLA6); test: Inhibition of beta-lactamase in extended-spectrum b-lactamase producing Acinetobacter baumannii NCTC 13305 assessed as potentiation of cefpirome-induced antibacterial activity by measuring cefpirome MIC at 4 to 8 ug/ml incubated for 16 to 20 hrs by CLSI method
[2] = target: Beta-lactamase (Acinetobacter baumannii) (UniProt Q8RLA6); test: Inhibition of beta-lactamase in extended-spectrum b-lactamase producing Acinetobacter baumannii S-15 assessed as potentiation of cefepime-induced antibacterial activity by measuring cefepime MIC at 4 to 8 ug/ml incubated for 16 to 20 hrs by CLSI method
[3] = target: Beta-lactamase (Acinetobacter baumannii) (UniProt Q8RLA6); test: Inhibition of beta-lactamase in extended-spectrum b-lactamase producing Acinetobacter baumannii NCTC 13301 assessed as potentiation of cefepime-induced antibacterial activity by measuring cefepime MIC at 4 to 8 ug/ml incubated for 16 to 20 hrs by CLSI method
[4] = target: Beta-lactamase (Acinetobacter baumannii) (UniProt Q8RLA6); test: Inhibition of beta-lactamase in extended-spectrum b-lactamase producing Acinetobacter baumannii S-8 assessed as potentiation of cefpirome-induced antibacterial activity by measuring cefpirome MIC at 4 to 8 ug/ml incubated for 16 to 20 hrs by CLSI method
[5] = target: Beta-lactamase (Acinetobacter baumannii) (UniProt Q8RLA6); test: Inhibition of beta-lactamase in extended-spectrum b-lactamase producing Acinetobacter baumannii NCTC 13304 assessed as potentiation of cefpirome-induced antibacterial activity by measuring cefpirome MIC at 4 to 8 ug/ml incubated for 16 to 20 hrs by CLSI method
[6] = target: Beta-lactamase (Acinetobacter baumannii) (UniProt Q8RLA6); test: Inhibition of beta-lactamase in extended-spectrum b-lactamase producing Acinetobacter baumannii NCTC 13301 assessed as potentiation of cefpirome-induced antibacterial activity by measuring cefpirome MIC at 4 to 8 ug/ml incubated for 16 to 20 hrs by CLSI method
[7] = target: Beta-lactamase (Acinetobacter baumannii) (UniProt Q8RLA6); test: Inhibition of beta-lactamase in extended-spectrum b-lactamase producing Acinetobacter baumannii S-10 assessed as potentiation of cefepime-induced antibacterial activity by measuring cefepime MIC at 4 to 8 ug/ml incubated for 16 to 20 hrs by CLSI method
[8] = target: Beta-lactamase (Acinetobacter baumannii) (UniProt Q8RLA6); test: Inhibition of beta-lactamase in extended-spectrum b-lactamase producing Acinetobacter baumannii S-8 assessed as potentiation of cefepime-induced antibacterial activity by measuring cefepime MIC at 4 to 8 ug/ml incubated for 16 to 20 hrs by CLSI method
[9] = target: Beta-lactamase (Acinetobacter baumannii) (UniProt Q8RLA6); test: Inhibition of beta-lactamase in extended-spectrum b-lactamase producing Acinetobacter baumannii S-3 assessed as potentiation of cefpirome-induced antibacterial activity by measuring cefpirome MIC at 4 to 8 ug/ml incubated for 16 to 20 hrs by CLSI method
[10] = target: Beta-lactamase (Acinetobacter baumannii) (UniProt Q8RLA6); test: Inhibition of beta-lactamase in extended-spectrum b-lactamase producing Acinetobacter baumannii S-15 assessed as potentiation of cefpirome-induced antibacterial activity by measuring cefpirome MIC at 4 to 8 ug/ml incubated for 16 to 20 hrs by CLSI method
[11] = target: Beta-lactamase (Acinetobacter baumannii) (UniProt Q8RLA6); test: Inhibition of beta-lactamase in extended-spectrum b-lactamase producing Acinetobacter baumannii S-10 assessed as potentiation of cefpirome-induced antibacterial activity by measuring cefpirome MIC at 4 to 8 ug/ml incubated for 16 to 20 hrs by CLSI method
[12] = target: Beta-lactamase (Acinetobacter baumannii) (UniProt Q8RLA6); test: Inhibition of beta-lactamase in extended-spectrum b-lactamase producing Acinetobacter baumannii S-4 assessed as potentiation of cefepime-induced antibacterial activity by measuring cefepime MIC at 4 to 8 ug/ml incubated for 16 to 20 hrs by CLSI method
[13] = target: Beta-lactamase (Acinetobacter baumannii) (UniProt Q8RLA6); test: Inhibition of beta-lactamase in extended-spectrum b-lactamase producing Acinetobacter baumannii NCTC 13305 assessed as potentiation of cefepime-induced antibacterial activity by measuring cefepime MIC at 4 to 8 ug/ml incubated for 16 to 20 hrs by CLSI method
[14] = target: Beta-lactamase (Acinetobacter baumannii) (UniProt Q8RLA6); test: Inhibition of beta-lactamase in extended-spectrum b-lactamase producing Acinetobacter baumannii S-3 assessed as potentiation of cefepime-induced antibacterial activity by measuring cefepime MIC at 4 to 8 ug/ml incubated for 16 to 20 hrs by CLSI method
[15] = target: Beta-lactamase (Acinetobacter baumannii) (UniProt Q8RLA6); test: Inhibition of beta-lactamase in extended-spectrum b-lactamase producing Acinetobacter baumannii NCTC 13304 assessed as potentiation of cefepime-induced antibacterial activity by measuring cefepime MIC at 4 to 8 ug/ml incubated for 16 to 20 hrs by CLSI method
[16] = target: Beta-lactamase (Acinetobacter baumannii) (UniProt Q8RLA6); test: Inhibition of beta-lactamase in extended-spectrum b-lactamase producing Acinetobacter baumannii S-4 assessed as potentiation of cefpirome-induced antibacterial activity by measuring cefpirome MIC at 4 to 8 ug/ml incubated for 16 to 20 hrs by CLSI method

Measured: MIC

Chain of Beta-lactamase (Acinetobacter baumannii) (Q8RLA6 as listed by the source): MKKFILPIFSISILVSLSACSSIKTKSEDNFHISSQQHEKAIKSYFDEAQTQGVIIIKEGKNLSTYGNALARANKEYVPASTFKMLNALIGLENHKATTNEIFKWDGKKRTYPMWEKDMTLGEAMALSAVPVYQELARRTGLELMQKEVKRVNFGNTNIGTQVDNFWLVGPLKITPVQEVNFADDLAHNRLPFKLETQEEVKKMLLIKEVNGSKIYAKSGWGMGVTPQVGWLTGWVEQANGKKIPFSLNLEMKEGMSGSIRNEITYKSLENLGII

CC1(C)[C@H](C(=O)O)N2C(=O)C[C@H]2S1(=O)=O
32 µg/mL: [4] | [5] | [8] | [10]
4 µg/mL: [13]
8 µg/mL: [1]
> 32 µg/mL: all other assays above
